Measurements: patent publication US20050182025A1, “Amidinylphenyl compounds and their use as fungicides” (priority 2002, published 2005)

Assays:
Type in all cases: in vivo
[1] = tested on: Erysiphe graminis f. sp. tritici; assay: Test A: preventive spray on wheat seedlings, wheat powdery mildew, disease rating; conditions: wheat seedlings sprayed to run-off, inoculated the following day with Erysiphe graminis f. sp. tritici, rated after 7 days at 20° C.; test concentration not given
Excerpt: General protocol for preparing test suspensions: Test compounds were first dissolved in acetone in an amount equal to 3% of the final volume and then suspended at the desired concentration (in ppm) in acetone and purified water (50/50 mix) containing 250 ppm of the surfactant Trem® 014 (polyhydric alcohol esters). The resulting test suspensions were then used in the following tests. Spraying a 200 ppm test suspension to the point of run-off on the test plants was the equivalent of a rate of 500 g/ha. The test suspension was sprayed to the point of run-off on wheat seedlings. The following day the seedlings were inoculated with a spore dust of Erysiphe graminis f. sp. tritici, (the causal agent of wheat powdery mildew) and incubated in a growth chamber at 20° C. for 7 days, after which disease ratings were made. Results for Tests A-C are given in Table A. In the table, a rating of 100 indicates 100% disease control and a rating of 0 indicates no disease control (relative to the controls). A dash (-) indicates no test results.

[2] = tested on: Puccinia recondita; assay: Test B: preventive spray on wheat seedlings, wheat leaf rust, disease rating; conditions: wheat seedlings sprayed to run-off, inoculated the following day with Puccinia recondita, 24 h saturated atmosphere then 6 days at 20° C.; test concentration not given
Excerpt: (§1) General protocol for preparing test suspensions: Test compounds were first dissolved in acetone in an amount equal to 3% of the final volume and then suspended at the desired concentration (in ppm) in acetone and purified water (50/50 mix) containing 250 ppm of the surfactant Trem® 014 (polyhydric alcohol esters). The resulting test suspensions were then used in the following tests. Spraying a 200 ppm test suspension to the point of run-off on the test plants was the equivalent of a rate of 500 g/ha. The test suspension was sprayed to the point of run-off on wheat seedlings. The following day the seedlings were inoculated with a spore suspension of Puccinia recondita (the causal agent of wheat leaf rust) and incubated in a saturated atmosphere at 20° C. for 24 h, and then moved to a growth chamber at 20° C. for 6 days, after which disease ratings were made. Results for Tests A-C are given in Table A. In the table, a rating of 100 indicates 100% disease control and a rating of 0 indicates no disease control (relative to the controls). A dash (-) indicates no test results.

[3] = tested on: Septoria nodorum; assay: Test C: preventive spray on wheat seedlings, Septoria glume blotch, disease rating; conditions: wheat seedlings sprayed to run-off, inoculated the following day with Septoria nodorum, 48 h saturated atmosphere then 9 days at 20° C.; test concentration not given
Excerpt: as §1, with “Septoria nodorum” for “Puccinia recondita”, “Septoria glume blotch)” for “wheat leaf rust)”, “48” for “24”, “9” for “6”

SMILES	Test A disease control rating (100 = 100% disease control, 0 = no disease control relative to the controls) [1] [%]	Test B disease control rating (100 = 100% disease control, 0 = no disease control relative to the controls) [2] [%]	Test C disease control rating (100 = 100% disease control, 0 = no disease control relative to the controls) [3] [%]
Cc1cc(OCCCC(C)(C)C)c(C)cc1N=CN(C)C [Compound 50]	99	67	100
CC[Si](C)(C)CCCOc1cc(C)c(N=CN(C)C)cc1C [Compound 51]	96	100	100
CCC[Si](C)(C)CCCOc1cc(C)c(N=CN(C)C)cc1C [Compound 52]	100	100	99
CC[Si](C)(CC)CCCOc1cc(C)c(N=CN(C)C)cc1C [Compound 53]	100	100	99
Cc1cc(OCCC[Si](C)(C)C)c(Cl)cc1N=CN1CCCC1 [Compound 95]	100	100	100
CCN(C)C=Nc1cc(Cl)c(OCCC[Si](C)(C)C)cc1C [compound 54]	100	100	100
CN(C)C=Nc1cc(Cl)c(OCCC[Si](C)(C)C)c(Cl)c1Cl [compound 55]	0	19	0
C=CCN(C)C=Nc1cc(Cl)c(OCCC[Si](C)(C)C)cc1C [compound 56]	100	100	100
CCN(C)C=Nc1cc(Cl)c(OCCC[Si](C)(C)CC)cc1C [compound 57]	100	100	100
CCCN(C)C=Nc1cc(Cl)c(OCCC[Si](C)(C)C)cc1C [compound 58]	100	100	100
CCN(C)C=Nc1cc(F)c(OCCC[Si](C)(C)C)cc1C [compound 59]	100	100	100
CCCN(C)C=Nc1cc(F)c(OCCC[Si](C)(C)C)cc1C [compound 60]	100	100	100
Cc1cc(OCCC[Si](C)(C)C)c(Cl)cc1N=CN(C)C1CC1 [compound 61]	100	100	100
CCCCN(C)C=Nc1cc(F)c(OCCC[Si](C)(C)C)cc1C [compound 62]	100	100	100
Cc1cc(OCCC[Si](C)(C)C)c(F)cc1N=CN(C)C(C)C [compound 63]	100	100	100
C=CCN(C)C=Nc1cc(F)c(OCCC[Si](C)(C)C)cc1C [compound 64]	100	100	100
CC[Si](C)(C)CCCOc1cc(C)c(N=CN(C)C2CC2)cc1Cl [compound 65]	100	100	96
CCCCN(C)C=Nc1cc(C(C)C)c(OCCC[Si](C)(C)C)cc1C [compound 73]	99	61	66
Cc1cc(OCCC[Si](C)(C)C)c(C(C)C)cc1N=CN(C)C(C)C [compound 74]	100	100	100
CCCN(C)C=Nc1cc(C(C)C)c(OCCC[Si](C)(C)C)cc1C [compound 75]	100	100	100
CCN(C)C=Nc1cc(C(C)C)c(OCCC[Si](C)(C)C)cc1C [compound 76]	100	100	100
CCN(C)C(=S)Nc1cc(C)c(OCCC[Si](C)(C)CC)cc1C [compound 77]	100	100	100
CCCN(C)C(=S)Nc1cc(C)c(OCCC[Si](C)(C)CC)cc1C [compound 78]	0	98	100
